This is an account of results in patent US20240325477A1, “PROTEIN HYDROLYSATE OF MORINGA PEREGRINA SEED CAKE FOR ITS APPLICATION AS A MEDICAMENT, PROCESS FOR OBTAINING SAME AND PHARMACEUTICAL AND DERMATOLOGICAL COMPOSITIONS” (AGENCE FRANCAISE POUR LE DEVELOPPEMENT D'AL ULA, priority 2020, published 2024).

One assay concerns DKK-1. Nature of the assay: DKK-1 synthesis and release by normal human fibroblasts, ELISA, 48 h. It is filed as cell-based. The settings on record: 100 nM. As for the experimental part: The aim of this study is to evaluate the effect of the peregrina protein hydrolysate on the synthesis and release of DKK-1 in a model compound of normal human fibroblasts in a monolayer culture.
Protocol: Human fibroblast cells were obtained from a donor. In order to carry out the experiments, the fibroblasts were cultured in a monolayer to confluence. 100 nM dexamethasone was used as a reference inducer for the synthesis and release of DKK-1. The […] were incubated for 48 hours in the absence (control) or in the presence of the reference product or of the test product: “peregrina protein hydrolysate”: 0.01%; 0.1% and 0.5% (v/v).
At the end of the incubation, the incubation media were removed in order to carry out the DKK-1 liberation method. […]
At the end of the incubation period of 48 hours, the DKK-1 liberated into the incubation medium was quantified with the aid of a sensitive and specific ELISA kit.
At the end of the incubation period, the proteins contained in the cell lysates were quantified with the aid of a spectrocolorimetric method (Bradford method). […]
The level of significance between the “control” and the “reference product” was evaluated with the aid of a Student test (p<0.05).
The level of significance between the “Control” and the “test product” was evaluated by a single factor analysis of variance (one-way ANOVA) followed by a Holm-Sidak test (p<0.05).
For orientation: ELISA stands for enzyme-linked immunosorbent assay.

The target of another assay is recombinant human furin (Homo sapiens, UniProt P09958). The assay can be described thus: Furin convertase activity, cleavage of fluorescent substrate. The assay is classed as biochemical. To be noted: 100 nM. As for the experimental part: Protocol: The study was carried out using a recombinant human furin, which catalyzes cleavage of a specific fluorescent reference substrate.
100 nM decanoyl-Arg-Val-Lys-Arg-CMK was used as a reference inhibitor for the activity of furin.
The furin was pre-incubated for 10 minutes at ambient temperature in the absence (control) or in the presence of a reference product, or of increasing concentrations of the test compound:
“Peregrina protein hydrolysate”; 0.02; 0.2 and 2% (v/v).
At the end of the pre-incubation step, a furin substrate was added and the experimental conditions were incubated once again at ambient temperature away from light for 5 minutes. All of the experiments were carried out in triplicate. […]
Cleavage of the fluorescent furin substrate was monitored for 5 minutes after addition of the substrate by reading the fluorescence at 485 nm/535 nm. […]
Evaluation protocol: Cleavage of the fluorescent furin substrate was monitored for 5 minutes after addition of the substrate by recording the fluorescence at 485 nm/535 nm. […]. […] The statistical significance of the difference observed between the “Control” and “Reference product” groups was evaluated by a Student test (p<0.001). The statistical significance of the difference observed between the “Control” and “Test compound” groups was evaluated by a one-way ANOVA, followed by a Holm-Sidak test (p<0.05). […]

Assay [1] deals with mouse embryo fibroblasts Balb/c 3T3 clone 31. Nature of the assay: In vitro 3T3 NRU phototoxicity test. The assay is classed as cell-based. The settings on record: BALB/c3T3, light or radiation study, read-out: Cl50 (the source's name).
Text: The principle of the test is the comparison of the cytotoxicity of the protein hydrolysate in accordance with Example 1 in the presence and in the absence of a non-cytotoxic dose of UVA, on cells under culture. […] The cells used were mouse embryo fibroblasts from the Balb/c 3T3 clone 31 (ATCC-CCL163) line. The positive control was a solution of chlorpromazine (CAS number: 69-09-0). The negative control was a diluent for the test and reference extract (buffered saline solution+/−1% solvent). […] The fibroblasts were trypsinized and two 96-well culture plates were inoculated in an amount of 100 μL of a 2×10^5 cells/mL (i.e. 2×10^6 cells per well) cell suspension in complete culture medium. The inoculated plates were incubated in an oven for 24 hours at 37° C., 5% CO2. At the end of the incubation, semi-confluence of the cell mat was verified. […] The spectral irradiation of the test device was measured in the wavelength range 250 to 700 nanometers with a calibrated spectroradiometer.
One of the 2 plates was irradiated with its cover at ambient temperature, and the other plate was protected from UVA and stored at ambient temperature for the irradiation period. […] The next day, the cell viability (growth, morphology, integrity of the monolayer) was evaluated by observations using a phase contrast microscope. […] The absorbances were measured at 450 nm.

≈ marks a conversion by molar mass, not a printed value. Read-outs that look alike come from different tables or passages of the source. The star is where a group is joined. Decanoyl = CCCCCCCCCC(=O)*; CH2Cl = ClC*

Sequence of recombinant human furin (P09958 108-794): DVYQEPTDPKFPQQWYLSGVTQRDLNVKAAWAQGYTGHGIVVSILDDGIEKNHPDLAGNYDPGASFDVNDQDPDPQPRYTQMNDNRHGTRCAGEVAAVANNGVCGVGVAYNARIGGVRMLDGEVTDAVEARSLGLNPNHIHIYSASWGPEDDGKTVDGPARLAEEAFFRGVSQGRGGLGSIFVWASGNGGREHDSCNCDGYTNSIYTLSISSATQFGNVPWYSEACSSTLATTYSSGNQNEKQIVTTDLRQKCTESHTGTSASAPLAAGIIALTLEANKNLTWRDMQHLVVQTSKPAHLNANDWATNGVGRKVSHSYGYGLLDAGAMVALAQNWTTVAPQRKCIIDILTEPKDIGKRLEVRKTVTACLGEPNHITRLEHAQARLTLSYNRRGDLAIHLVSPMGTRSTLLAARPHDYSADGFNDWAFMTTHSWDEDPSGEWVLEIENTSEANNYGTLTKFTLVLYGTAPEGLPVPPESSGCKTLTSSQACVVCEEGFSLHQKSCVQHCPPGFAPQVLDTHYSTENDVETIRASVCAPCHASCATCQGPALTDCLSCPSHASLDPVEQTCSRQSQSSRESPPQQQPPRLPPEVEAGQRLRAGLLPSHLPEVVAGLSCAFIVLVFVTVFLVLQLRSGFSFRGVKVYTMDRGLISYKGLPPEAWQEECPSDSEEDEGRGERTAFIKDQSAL

Turning to `C[C@@H]1C[C@H]2[C@@H]3CCC4=CC(=O)C=C[C@]4(C)[C@@]3(F)[C@@H](O)C[C@]2(C)[C@@]1(O)C(=O)CO` [Dexamethasone, dexamethasone], the “Increase of the DKK-1 liberated compared with the Control” value in the assay with DKK-1 is listed as 181.8%.
Regarding “decanoyl-Arg-Val-Lys-Arg-CMK (Decanoyl-RVKR-CH2Cl)”, in the assay with recombinant human furin, the “Inhibition of the activity of furin” value stood at 97.9%.
Take `CN(C)CCCN1c2ccccc2Sc2ccc(Cl)cc21` [Chlorpromazine, chlorpromazine]: the IC50 in assay [1] (in the absence of UVA) lay in the range of 7 to 90 µg/mL (≈ 22 to 282 µM); in assay [1] (in the presence of UVA), 0.1 to 2 µg/mL.
